Assay results from US11492348B2, “Tri-substituted aryl and heteroaryl derivatives as modulators of PI3-kinase and autophagy pathways” (Neuropore Therapies, Inc., priority 2018, dated 2022).
Where a name gives a salt, the structure may show the parent alone.

Experiments:
[1] = tested on: (Ser-473) pAKT in B103 (Rat Neuroblastoma) cells; assay: pAKT protocol: loss of (Ser-473) pAKT by AlphaScreen in insulin-stimulated B103 cells; assay type: cell-based; conditions: (Ser-473) pAKT/total AKT IC50, 2-hour pretreatment, 2.5 μg/mL insulin 20 minutes
Experimental: Inhibition of the PI3K-AKT-mTOR pathway was measured by quantifying the loss of (Ser-473) pAKT using AlphaScreen (Perkin Elmer). B103 (Rat Neuroblastoma) cells were seeded in serum containing medium (High Glucose DMEM (-Phenol Red)+10% FBS+2× Glutamax+1 mM Sodium Pyruvate+10 mM HEPES+1× Non-Essential Amino Acids+1× Pen/Strep) on a 96-well tissue culture treated plate and grown for 20 hours. Cells were then serum starved in serum free medium (High Glucose DMEM (-Phenol Red)+1× Glutamax+1 mM Sodium Pyruvate+1× Pen/Strep) for 6 hours prior to a 2-hour pretreatment with inhibitors of the pathway, including reference inhibitor LY294002. These inhibitors were prepared at a 200× final concentration as a 6-point, 1:3 serial dilution in DMSO series, with DMSO as the 7th point. The inhibitors were then diluted in experimental medium (High Glucose DMEM (-Phenol Red)+1× Glutamax+1 mM Sodium Pyruvate+1× Pen/Strep+25 mM HEPES+0.1% BSA) and combined with the cells at 1× final concentration in 0.5% DMSO. […] Cells were promptly lysed using Perkin Elmer proprietary lysis buffer and the (Ser-473) pAKT and total AKT contained in the lysate was measured by AlphaScreen. In AlphaScreen, donor beads were coated with streptavidin to capture one of the antibodies, which is biotinylated. Acceptor beads were coated with Protein A to immobilize the other antibody. In the presence of target protein, the two antibodies bring the donor and acceptor beads close together, generating signal. The amount of light emission is directly proportional to the amount of target protein present in the sample. For each inhibitor tested: the ratio of measured (Ser-473) pAKT/totalAKT was plotted in GraphPad Prism as a 7-point, non-linear regression, 4-parameter curve with bottom constrained to reference control bottom and unconstrained top anchored to DMSO.

PI3Kα = PI3Kα (Homo sapiens (Human), UniProt P42336); assay: Inhibition of PI3Kα (ADP-Glo kinase activity assay, ATP to ADP conversion); assay type: biochemical; conditions: 25 μM PIP2:PS, 60 μM ATP, 30 min reaction, luminescence
Sequence of PI3Kα (P42336 whole entry): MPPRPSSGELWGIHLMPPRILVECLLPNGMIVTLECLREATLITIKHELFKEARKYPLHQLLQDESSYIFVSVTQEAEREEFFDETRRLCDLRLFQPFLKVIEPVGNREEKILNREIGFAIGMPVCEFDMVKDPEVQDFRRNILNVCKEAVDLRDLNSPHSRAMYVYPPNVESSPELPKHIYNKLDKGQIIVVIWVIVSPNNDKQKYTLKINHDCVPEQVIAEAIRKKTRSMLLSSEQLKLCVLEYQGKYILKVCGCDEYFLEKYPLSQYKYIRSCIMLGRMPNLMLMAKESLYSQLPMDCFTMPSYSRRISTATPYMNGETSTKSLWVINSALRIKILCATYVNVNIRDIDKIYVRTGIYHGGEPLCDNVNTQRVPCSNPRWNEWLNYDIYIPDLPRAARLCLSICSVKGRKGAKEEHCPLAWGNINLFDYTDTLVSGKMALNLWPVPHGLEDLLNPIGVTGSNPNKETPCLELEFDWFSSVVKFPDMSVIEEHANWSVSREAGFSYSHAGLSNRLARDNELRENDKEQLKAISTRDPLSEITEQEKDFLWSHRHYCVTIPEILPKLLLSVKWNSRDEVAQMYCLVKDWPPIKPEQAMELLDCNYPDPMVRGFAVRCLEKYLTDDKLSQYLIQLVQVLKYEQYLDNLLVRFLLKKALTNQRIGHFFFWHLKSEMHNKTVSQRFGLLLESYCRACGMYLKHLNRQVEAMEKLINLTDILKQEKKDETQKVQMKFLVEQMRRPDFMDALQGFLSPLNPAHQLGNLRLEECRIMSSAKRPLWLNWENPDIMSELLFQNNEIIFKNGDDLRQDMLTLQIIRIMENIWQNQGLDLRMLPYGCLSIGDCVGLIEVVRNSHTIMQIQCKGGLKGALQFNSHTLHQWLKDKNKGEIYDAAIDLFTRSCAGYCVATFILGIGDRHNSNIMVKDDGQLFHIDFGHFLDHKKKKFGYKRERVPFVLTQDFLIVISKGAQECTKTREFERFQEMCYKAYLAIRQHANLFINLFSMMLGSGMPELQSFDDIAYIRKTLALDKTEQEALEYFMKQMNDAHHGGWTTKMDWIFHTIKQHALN
Sequence of PI3Kα (P27986 whole entry partner): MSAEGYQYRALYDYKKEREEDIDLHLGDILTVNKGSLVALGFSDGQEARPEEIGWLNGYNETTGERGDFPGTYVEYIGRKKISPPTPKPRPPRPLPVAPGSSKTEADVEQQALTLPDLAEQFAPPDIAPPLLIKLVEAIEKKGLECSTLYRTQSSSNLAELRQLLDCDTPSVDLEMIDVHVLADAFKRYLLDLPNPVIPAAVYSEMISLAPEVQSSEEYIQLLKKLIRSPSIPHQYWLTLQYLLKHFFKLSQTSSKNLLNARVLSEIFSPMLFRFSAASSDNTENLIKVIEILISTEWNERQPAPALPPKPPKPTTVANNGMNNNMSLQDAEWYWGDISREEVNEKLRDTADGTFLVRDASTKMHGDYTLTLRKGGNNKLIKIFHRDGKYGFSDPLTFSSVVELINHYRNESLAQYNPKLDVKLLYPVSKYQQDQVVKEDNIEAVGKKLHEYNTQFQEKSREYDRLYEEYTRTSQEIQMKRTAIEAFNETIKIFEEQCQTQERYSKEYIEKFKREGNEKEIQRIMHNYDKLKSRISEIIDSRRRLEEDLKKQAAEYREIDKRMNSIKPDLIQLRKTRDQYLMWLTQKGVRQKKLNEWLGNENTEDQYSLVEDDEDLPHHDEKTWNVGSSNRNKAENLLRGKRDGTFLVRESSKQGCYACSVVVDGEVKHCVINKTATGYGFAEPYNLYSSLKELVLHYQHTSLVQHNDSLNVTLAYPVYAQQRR
Method in brief: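 Recombinant active PI3Kα (1.1 nM) in HEPES pH 7.5 buffer with 6 mM MgCl2 and 8 mM DTT was preincubated with compound for 0 or 3 h. The reaction ran for 30 min with 25 µM PIP2:PS and 60 µM ATP, and ADP formation was read by ADP-Glo luminescence. IC50 came from a 12-point, 1:3 series fitted with a 4-parameter model, bottom fixed to reference inhibitor controls and top floating.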

mTor kinase = mTor kinase (Homo sapiens (Human), UniProt P42345); assay: mTor assay (33P-ATP filter-binding kinase assay); assay type: biochemical; conditions: 2 hours at room temperature
Experimental: The substrate was prepared in base reaction buffer (20 mM Hepes (pH 7.5), 10 mM MgCl2, 1 mM EGTA, 0.02% Brij35, 0.02 mg/ml BSA, 0.1 mM Na3VO4, 2 mM DTT, 1% DMSO), and required cofactors were added to the substrate solution. The mTor kinase was delivered into the substrate solution, and the solution was gently mixed. Testing compounds were dissolved in 100% DMSO to specific concentration. The serial dilution was conducted by Integra Viaflo Assist in DMSO. The compounds were delivered into the kinase reaction mixture by Acoustic technology (Echo550; nanoliter range), and the reaction mixture was incubated for 20 min at room temperature. Then, 33P-ATP (Specific activity 10 μCi/μl) was delivered into the reaction mixture to initiate the reaction. The reaction mixture was incubated for 2 hours at room temperature. Radioactivity was detected by a filter-binding method. Kinase activity data were expressed as the percent remaining kinase activity in test samples compared to vehicle (dimethyl sulfoxide) reactions. IC50 values and curve fits were obtained using Prism (GraphPad Software).

`N#Cc1cccc(S(=O)(=O)c2cc(-c3cnc(N)nc3)cc(N3CCOCC3)c2)c1` [Compound 13, 3-((3-(2-aminopyrimidin-5-yl)-5-morpholinophenyl)sulfonyl)benzonitrile] was tested, and the IC50 [1] was 28.6 µM, the “PI3Ka IC50” value (PI3Kα) was 0.91 µM and the IC50 (mTor kinase) was 10 µM.

For `Cc1cnccc1-c1cc(N2CCOCC2)cc(S(=O)(=O)c2ccccc2)c1` [Compound 12, 4-(3-(3-methylpyridin-4-yl)-5-(phenylsulfonyl)phenyl)morpholine], the IC50 [1] was 100 µM, the “PI3Ka IC50” value (PI3Kα) was 9.0 µM and the IC50 (mTor kinase) was 100 µM.

For `Nc1ncc(-c2cc(Oc3ccccc3Cl)cc(N3CCOCC3)n2)cn1` [Compound 134, 5-(4-(2-chlorophenoxy)-6-morpholinopyridin-2-yl)pyrimidin-2-amine], the IC50 [1] was 0.38 µM, the “PI3Ka IC50” value (PI3Kα) was 0.07 µM and the IC50 (mTor kinase) was 0.45 µM.

For `Nc1ncc(-c2cc(N3CCOCC3)cc(S(=O)(=O)c3ccccc3)c2)cn1` [Compound 1, 5-(3-morpholino-5-(phenylsulfonyl)phenyl)pyrimidin-2-amine], the IC50 [1] was 7.52 µM, the “PI3Ka IC50” value (PI3Kα) was 0.61 µM and the IC50 (mTor kinase) was 2 µM.

In the case of `N#Cc1cccc(CS(=O)(=O)c2cc(-c3cnc(N)nc3)cc(N3CCOCC3)c2)c1` [Compound 27, 3-(((3-(2-aminopyrimidin-5-yl)-5-morpholinophenyl)sulfonyl)methyl) benzonitrile], the IC50 [1] is reported as 14 µM, the “PI3Ka IC50” value (PI3Kα) is reported as 0.38 µM and the IC50 (mTor kinase) is reported as 11 µM.

`Nc1ncc(-c2cc(OC3CCOC3)cc(N3CCOCC3)n2)cn1` (stereo not drawn) [Compound 130, 5-(6-morpholino-4-((tetrahydrofuran-3-yl)oxy)pyridin-2-yl)pyrimidin-2-amine] was tested, and the IC50 [1] was 0.75 µM, the “PI3Ka IC50” value (PI3Kα) was 0.023 µM and the IC50 (mTor kinase) was 1.75 µM.

In the case of `Nc1ncc(-c2cc(C3(c4ccccc4)CC3)cc(N3CCOCC3)n2)cn1` [Compound 127, 5-(6-morpholino-4-(1-phenylcyclopropyl)pyridin-2-yl)pyrimidin-2-amine], the IC50 [1] is reported as 0.38 µM, the “PI3Ka IC50” value (PI3Kα) is reported as 0.056 µM and the IC50 (mTor kinase) is reported as 0.13 µM.

In the case of `Nc1ncc(-c2cc(C(=O)C3CCOCC3)cc(N3CCOCC3)n2)cn1` [Compound 131, (2-(2-aminopyrimidin-5-yl)-6-morpholinopyridin-4-yl)(tetrahydro-2H-pyran-4-yl)methanone], the IC50 [1] is reported as 0.56 µM, the “PI3Ka IC50” value (PI3Kα) is reported as 0.023 µM and the IC50 (mTor kinase) is reported as 0.59 µM.

`CS(=O)(=O)Nc1ccc(CS(=O)(=O)c2cc(-c3cnc(N)nc3)cc(N3CCOCC3)c2)cc1` [57 (as a TFA salt), N-(4-(((3-(2-aminopyrimidin-5-yl)-5-morpholinophenyl)sulfonyl)methyl)phenyl) methanesulfonamide] showed an IC50 [1] of 19.8 µM, an IC50 (PI3Kα; read-out: PI3Ka IC50) of 0.48 µM and an IC50 (mTor kinase) of 3.44 µM.

`Nc1ncc(-c2cc(N3CCOCC3)cc(S(=O)(=O)c3cccc4ccoc34)c2)cn1` [Compound 110, 5-(3-(benzofuran-7-ylsulfonyl)-5-morpholinophenyl)pyrimidin-2-amine] was tested, and the IC50 [1] was 8.7 µM, the “PI3Ka IC50” value (PI3Kα) was 0.40 µM and the IC50 (mTor kinase) was 9.9 µM.

`Nc1ncc(-c2cc(N3CCOCC3)cc(S(=O)(=O)CC3CCOC3)c2)cn1` (stereo not drawn) [Compound 38, 5-(3-morpholino-5-(((tetrahydrofuran-3-yl)methyl)sulfonyl)phenyl)pyrimidin-2-amine] was tested, and the IC50 [1] was 9.11 µM, the “PI3Ka IC50” value (PI3Kα) was 0.74 µM and the IC50 (mTor kinase) was 3.6 µM.

With `Nc1cc(F)c(-c2cc(N3CCOCC3)cc(S(=O)(=O)[C@@H]3CCOC3)c2)cn1` [Compound 106, (R)-4-fluoro-5-(3-morpholino-5-((tetrahydrofuran-3-yl)sulfonyl)phenyl)pyridin-2-amine] the IC50 [1] was 4.1 µM, the “PI3Ka IC50” value (PI3Kα) was 0.10 µM and the IC50 (mTor kinase) was 1.46 µM.

`Nc1ncc(-c2cc(N3CCOCC3)cc(S(=O)(=O)CC3CCOCC3)c2)cn1` [Compound 39, 5-(3-morpholino-5-(((tetrahydro-2H-pyran-4-yl)methyl)sulfonyl)phenyl)pyrimidin-2-amine] was tested, and the IC50 [1] was 9.9 µM, the “PI3Ka IC50” value (PI3Kα) was 0.79 µM and the IC50 (mTor kinase) was 4.8 µM.

In the case of `Nc1ncc(-c2cc(N3CCOCC3)cc(S(=O)(=O)c3cccc4c3OCC4)c2)cn1` [Compound 111, 5-(3-((2,3-dihydrobenzofuran-7-yl)sulfonyl)-5-morpholinophenyl)pyrimidin-2-amine], the IC50 [1] is reported as 14.5 µM, the “PI3Ka IC50” value (PI3Kα) is reported as 0.38 µM and the IC50 (mTor kinase) is reported as 5.4 µM.

For `Nc1ncc(-c2cc(N3CCOCC3)cc(S(=O)(=O)Cc3ccc(F)cc3)c2)cn1` [Compound 29, 5-(3-((4-fluorobenzyl)sulfonyl)-5-morpholinophenyl)pyrimidin-2-amine], the IC50 [1] was 10.9 µM, the “PI3Ka IC50” value (PI3Kα) was 0.37 µM and the IC50 (mTor kinase) was 10.9 µM.

In the case of `COc1ccccc1Oc1cc(-c2cnc(N)nc2)nc(N2CCOCC2)c1` [Compound 135, 5-(4-(2-methoxyphenoxy)-6-morpholinopyridin-2-yl)pyrimidin-2-amine], the IC50 [1] is reported as 1.62 µM, the “PI3Ka IC50” value (PI3Kα) is reported as 0.079 µM and the IC50 (mTor kinase) is reported as 0.7 µM.

`O=S(=O)(Cc1ccccc1)c1cc(-c2cnc(NCCO)nc2)cc(N2CCOCC2)c1` [Compound 35, 2-((5-(3-(benzylsulfonyl)-5-morpholinophenyl)pyrimidin-2-yl)amino)ethan-1-ol] was tested, and the IC50 [1] was 23.5 µM, the “PI3Ka IC50” value (PI3Kα) was 1.1 µM and the IC50 (mTor kinase) was 12.2 µM.

With `Nc1ncc(-c2cc(N3CCOCC3)cc(S(=O)(=O)Cc3ccccc3F)c2)cn1` [Compound 50, 5-(3-((2-fluorobenzyl)sulfonyl)-5-morpholinophenyl)pyrimidin-2-amine] the IC50 [1] was over 50 µM, the “PI3Ka IC50” value (PI3Kα) was 0.28 µM and the IC50 (mTor kinase) was 2.98 µM.

With `Nc1ncc(-c2cc(N3CCOCC3)cc(S(=O)(=O)C(F)(F)c3ccccc3)c2)cn1` [Compound 87, 5-(3-((difluoro(phenyl)methyl)sulfonyl)-5-morpholinophenyl)pyrimidin-2-amine] the IC50 [1] was 1 µM, the “PI3Ka IC50” value (PI3Kα) was 0.21 µM and the IC50 (mTor kinase) was 1.44 µM.

In the case of `CC(=O)Nc1ncc(-c2cc(N3CCOCC3)cc(S(=O)(=O)c3ccccc3)c2)cn1` [Compound 30, N-(5-(3-morpholino-5-(phenylsulfonyl)phenyl)pyrimidin-2-yl)acetamide], the IC50 [1] is reported as 18 µM, the “PI3Ka IC50” value (PI3Kα) is reported as 3.1 µM and the IC50 (mTor kinase) is reported as 10.9 µM.

With `O=S(=O)(c1ccccc1)c1cc(-c2cnc(NCCO)nc2)cc(N2CCOCC2)c1` [Compound 19, 2-((5-(3-morpholino-5-(phenylsulfonyl)phenyl)pyrimidin-2-yl)amino)ethan-1-ol] the IC50 [1] was 37 µM, the “PI3Ka IC50” value (PI3Kα) was 2.9 µM and the IC50 (mTor kinase) was 16 µM.

`Nc1cc(C(F)(F)F)c(-c2cc(N3CCOCC3)cc(S(=O)(=O)C3CCOC3)c2)cn1` (stereo not drawn) [Compound 70, 5-(3-morpholino-5-((tetrahydrofuran-3-yl)sulfonyl)phenyl)-4-(trifluoromethyl)pyridin-2-amine] was tested, and the IC50 [1] was 4.02 µM, the “PI3Ka IC50” value (PI3Kα) was 7.6 µM and the IC50 (mTor kinase) was 7.61 µM.

With `CC(c1ccccc1)c1cc(-c2cnc(N)nc2)nc(N2CCOCC2)c1` (stereo not drawn) [Compound 125, 5-(6-morpholino-4-(1-phenylethyl)pyridin-2-yl)pyrimidin-2-amine] the IC50 [1] was 0.81 µM, the “PI3Ka IC50” value (PI3Kα) was 0.21 µM and the IC50 (mTor kinase) was 0.27 µM.

`Cc1ccc(S(=O)(=O)c2cc(-c3cnc(N)nc3)cc(N3CCOCC3)c2)cc1` [Compound 21, 5-(3-morpholino-5-tosylphenyl)pyrimidin-2-amine] was tested, and the IC50 [1] was 37 µM, the “PI3Ka IC50” value (PI3Kα) was 2.1 µM and the IC50 (mTor kinase) was 9.39 µM.

In the case of `Nc1ncc(-c2cc(N3CCOCC3)cc(S(=O)(=O)c3ccc(F)cc3)c2)cn1` [Compound 8, 5-(3-((4-fluorophenyl)sulfonyl)-5-morpholinophenyl)pyrimidin-2-amine], the IC50 [1] is reported as 7.62 µM, the “PI3Ka IC50” value (PI3Kα) is reported as 1.3 µM and the IC50 (mTor kinase) is reported as 0.83 µM.
